In US20030236212A1, “Functionalized long chain derivatives as acyl coenzyme-A mimics, compositions thereof, and methods of cholesterol management and related uses” (priority 2002, published 2003):
Read-outs that look alike come from different tables or passages of the source.

System: obese female Zucker rats
Assay: Oral daily treatment of obese female Zucker rats for 14 days (body weight, serum lipids, glucose, insulin)
Format: in vivo, rat
Design: HDL-C / Glucose / Insulin / NEFA / BHA / TG / TC / Non HDL-C: unit not given here
Settings: for change in vivo at 30 mg/kg/day / change in vivo at 30 mg/kg: 30 mg/kg/day; for change in vivo at 100 mg/kg/day / change in vivo at 100 mg/kg: 100 mg/kg/day
Method: The dosing vehicle was administered to control animals in parallel experiments.
Body weight was determined daily prior to dosing. Animals were allowed free access to rodent chow and water throughout the study. Blood glucose was determined after a 6-hour fast in the afternoon without anesthesia from a tail vein. Serum was also prepared from a blood sample subsequently obtained from the orbital venous plexus (with O2/CO2 anesthesia) prior to and after one week treatment and used lipid and insulin determinations. At two weeks, blood glucose was again determined after a 6-hour fast without anesthesia from a tail vein. Soon thereafter, animals were sacrificed by CO2 inhalation in the afternoon and cardiac blood serum was collected and assessed for various lipids and insulin.

[1] = Rattus norvegicus, 336 h, obese female Zucker rats, oral daily, fourteen days, read-out: % wt. gain
[2] = Rattus norvegicus, 336 h, obese female Zucker rats, oral daily, fourteen days, read-out: BHA, Percent Change from Pre-treatment
[3] = Rattus norvegicus, 336 h, obese female Zucker rats, oral daily, fourteen days, read-out: Glucose, Percent Change from Pre-treatment
[4] = Rattus norvegicus, 336 h, obese female Zucker rats, oral daily, fourteen days, read-out: HDL-C, Percent Change from Pre-treatment
[5] = Rattus norvegicus, 336 h, obese female Zucker rats, oral daily, fourteen days, read-out: Insulin, Percent Change from Pre-treatment
[6] = Rattus norvegicus, 336 h, obese female Zucker rats, oral daily, fourteen days, read-out: NEFA, Percent Change from Pre-treatment
[7] = Rattus norvegicus, 336 h, obese female Zucker rats, oral daily, fourteen days, read-out: Non HDL-C, Percent Change from Pre-treatment
[8] = Rattus norvegicus, 336 h, obese female Zucker rats, oral daily, fourteen days, read-out: TC, Percent Change from Pre-treatment
[9] = Rattus norvegicus, 336 h, obese female Zucker rats, oral daily, fourteen days, read-out: TG, Percent Change from Pre-treatment
[10] = obese female Zucker rats, oral gavage daily 14 days, 100 mg/kg
[11] = obese female Zucker rats, oral, 14 days, 5 mg/kg/day (Table 1)

CC(C)(CO)CCCCOP(=O)(O)OCCCCC(C)(C)CO [Compound L, phosphoric acid bis(5,5-dimethyl-6-hydroxy-hexyl)ester]
change in vivo at 80 mg/kg/day (Rattus norvegicus, 336 h, obese female Zucker rats, oral daily, fourteen days, 80 mg/kg/day, read-out: % wt. gain): 0% | change in vivo at 80 mg/kg (Rattus norvegicus, 336 h, obese female Zucker rats, oral daily, fourteen days, 80 mg/kg/day, read-out: BHA, Percent Change from Pre-treatment): 575% | change in vivo at 80 mg/kg (Rattus norvegicus, 336 h, obese female Zucker rats, oral daily, fourteen days, 80 mg/kg/day, read-out: Glucose, Percent Change from Pre-treatment): 9% | change in vivo at 80 mg/kg (Rattus norvegicus, 336 h, obese female Zucker rats, oral daily, fourteen days, 80 mg/kg/day, read-out: HDL-C, Percent Change from Pre-treatment): 8% | change in vivo at 80 mg/kg (Rattus norvegicus, 336 h, obese female Zucker rats, oral daily, fourteen days, 80 mg/kg/day, read-out: Insulin, Percent Change from Pre-treatment): 21% | change in vivo at 80 mg/kg (Rattus norvegicus, 336 h, obese female Zucker rats, oral daily, fourteen days, 80 mg/kg/day, read-out: NEFA, Percent Change from Pre-treatment): 62% | change in vivo at 80 mg/kg (Rattus norvegicus, 336 h, obese female Zucker rats, oral daily, fourteen days, 80 mg/kg/day, read-out: Non HDL-C, Percent Change from Pre-treatment): -17% | change in vivo at 80 mg/kg (Rattus norvegicus, 336 h, obese female Zucker rats, oral daily, fourteen days, 80 mg/kg/day, read-out: TC, Percent Change from Pre-treatment): -4% | change in vivo at 80 mg/kg (Rattus norvegicus, 336 h, obese female Zucker rats, oral daily, fourteen days, 80 mg/kg/day, read-out: TG, Percent Change from Pre-treatment): -13%

CC(C)(CO)CCCCNC(=O)CCCCC(C)(C)CO [Compound J, 7-Hydroxy-6,6-dimethylheptanoic acid (6-hydroxy-5,5-dimethylhexyl)-amide]
change in vivo at 30 mg/kg/day [1]: 11% | change in vivo at 30 mg/kg [2]: 21% | change in vivo at 30 mg/kg [3]: 18% | change in vivo at 30 mg/kg [4]: 20% | change in vivo at 30 mg/kg [5]: -41% | change in vivo at 30 mg/kg [6]: -38% | change in vivo at 30 mg/kg [7]: -7% | change in vivo at 30 mg/kg [8]: 9% | change in vivo at 30 mg/kg [9]: -10%

CC(C)(CO)CCCCOC(=O)CCCCC(C)(C)CO [Compound K, 7-Hydroxy-6,6-dimethylheptanoic acid 6-hydroxy-5,5-dimethylhexyl ester]
change in vivo at 100 mg/kg/day [1]: 11% | change in vivo at 100 mg/kg [2]: 103% | change in vivo at 100 mg/kg [3]: -21% | change in vivo at 100 mg/kg [4]: 23% | change in vivo at 100 mg/kg [5]: 0% | change in vivo at 100 mg/kg [6]: 43% | change in vivo at 100 mg/kg [7]: -5% | change in vivo at 100 mg/kg [8]: 12% | change in vivo at 100 mg/kg [9]: 7%

CC(C)(CO)CCCCNC(=O)OCCCCC(C)(C)CO [Compound M, (6-Hydroxy-5,5-dimethylhexyl)-carbamic acid 6-hydroxy-5,5-dimethylhexyl ester]
change in vivo at 100 mg/kg/day [1]: 20% | change in vivo at 100 mg/kg [2]: 145% | change in vivo at 100 mg/kg [3]: 2% | change in vivo at 100 mg/kg [4]: 65% | change in vivo at 100 mg/kg [5]: 26% | change in vivo at 100 mg/kg [6]: -53% | change in vivo at 100 mg/kg [7]: 84% | change in vivo at 100 mg/kg [8]: 70% | change in vivo at 100 mg/kg [9]: -4%

CC(C)(CCCCCCOCCCCCCC(C)(C)COP(=O)(O)O)COP(=O)(O)O [Compound C]
change in vivo at 30 mg/kg/day [1]: 13% | change in vivo at 30 mg/kg [2]: 123% | change in vivo at 30 mg/kg [3]: 9% | change in vivo at 30 mg/kg [4]: -19% | change in vivo at 30 mg/kg [5]: 11% | change in vivo at 30 mg/kg [6]: -33% | change in vivo at 30 mg/kg [7]: 52% | change in vivo at 30 mg/kg [8]: 6% | change in vivo at 30 mg/kg [9]: 22%

CC(C)(CO)CCCCNCCCCC(C)(C)CO [Compound H, 6-(6-Hydroxy-5,5-dimethylhexylamino)-2,2-dimethylhexan-1-ol]
change in vivo at 53 mg/kg/day (Rattus norvegicus, 336 h, obese female Zucker rats, oral daily, fourteen days, 53 mg/kg/day, read-out: % wt. gain): 16% | change in vivo at 53 mg/kg (Rattus norvegicus, 336 h, obese female Zucker rats, oral daily, fourteen days, 53 mg/kg/day, read-out: BHA, Percent Change from Pre-treatment): 48% | change in vivo at 53 mg/kg (Rattus norvegicus, 336 h, obese female Zucker rats, oral daily, fourteen days, 53 mg/kg/day, read-out: Glucose, Percent Change from Pre-treatment): -23% | change in vivo at 53 mg/kg (Rattus norvegicus, 336 h, obese female Zucker rats, oral daily, fourteen days, 53 mg/kg/day, read-out: HDL-C, Percent Change from Pre-treatment): 16% | change in vivo at 53 mg/kg (Rattus norvegicus, 336 h, obese female Zucker rats, oral daily, fourteen days, 53 mg/kg/day, read-out: Insulin, Percent Change from Pre-treatment): -49% | change in vivo at 53 mg/kg (Rattus norvegicus, 336 h, obese female Zucker rats, oral daily, fourteen days, 53 mg/kg/day, read-out: NEFA, Percent Change from Pre-treatment): -55% | change in vivo at 53 mg/kg (Rattus norvegicus, 336 h, obese female Zucker rats, oral daily, fourteen days, 53 mg/kg/day, read-out: Non HDL-C, Percent Change from Pre-treatment): -10% | change in vivo at 53 mg/kg (Rattus norvegicus, 336 h, obese female Zucker rats, oral daily, fourteen days, 53 mg/kg/day, read-out: TC, Percent Change from Pre-treatment): 5% | change in vivo at 53 mg/kg (Rattus norvegicus, 336 h, obese female Zucker rats, oral daily, fourteen days, 53 mg/kg/day, read-out: TG, Percent Change from Pre-treatment): -32%

CN(CCOc1ccc(CC2SC(=O)NC2=O)cc1)c1ccccn1 (stereo not drawn) [Compound 2, 5-{4-[2-(Methyl-pyridin-2-yl-amino)-ethoxy]-benzyl}-thiazolidine-2,4-dione, reference compound]
blood glucose levels (fasted obese female Zucker rats, oral gavage daily 14 days, 100 mg/kg): reduction | serum insulin relative to pretreatment (fasted obese female Zucker rats, two weeks of treatment, 100 mg/kg): reduced | liver to body weight [10]: slightly reduced | weight gain, percent of initial weight after two weeks [10]: greater than 15% | BHA [11]: 15.6 ± 0.6 | Glucose [11]: −11.1 ± 4.5 | HDL-C [11]: −4.6 ± 8.8 | Insulin [11]: −53.3 ± 5.2 | NEFA [11]: 0.034 ± 0.001 | Non HDL-C [11]: −54.1 ± 5.6 | TC [11]: −50.2 ± 1.8 | TG [11]: 53 ± 14
